{"source": "patent US5852004A", "about": "“Drug and pharmaceutical composition for the treatment of lesions of the digestive tract” (Societe Valbiofrance, priority 1994, dated 1998)", "key": {"[1]": {"tested_on": "colitis induced by acetic acid", "test": "colitis induced by acetic acid", "assay_type": "in vivo, Sprague Dawley male rats", "conditions": "for Alteration score: per os twice a day for three days, score 72 hours after acetic acid, mean ± standard error", "protocol": "Groups of 6 Sprague Dawley male rats weighing approximately 200 g are placed in hydric fasting 24 hours before the test. On the day of the test, the animals are anesthetized with pentobarbital (30 mg/kg) by intraperitoneal route. After laparotomy, a colic instillation of 2 ml of 5% acetic acid is performed 2 cm from the caecum. The acetic acid is left in contact for 10 seconds and the colon is then rinsed by 3 ml of saline phosphate buffer (PBS) at pH 7. The wound is then closed. The animals are sacrificed 72 hours later by cervical elongation. The colic alterations are noted on the following scale:\n2: superficial necrosis of the mucosa\n4: major necrosis of the mucosa with edema\nA third group receives sucralfate (marketed under the name of ULCAR Pharmaceutical Laboratories Fabre). The supplier's recommended dose is used (500 mg/kg, i.e. 100 mg per rat) administered orally twice a day for three days.\nThe mean and the standard error were calculated for each batch of animals. Statistical comparison is performed using White's non parametric test compared to the control."}, "trypsin": {"tested_on": "trypsin", "test": "enzymatic activity of trypsin on substrate S87", "procedure": "The enzymatic activity of trypsin was measured by spectrophotometric absorption of the transformation product of S 87 versus incubation time."}, "beta TGF": {"biological_target": "T1, beta TGF (Homo sapiens, UniProt P01137)", "T1 construct": "from tissue; host or cells: human blood platelets", "T1 sequence (P01137 279-390 limits assumed)": "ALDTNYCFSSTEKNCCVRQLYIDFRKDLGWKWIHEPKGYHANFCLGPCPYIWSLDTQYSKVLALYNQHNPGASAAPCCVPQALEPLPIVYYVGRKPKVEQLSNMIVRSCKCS", "test": "protection of beta TGF against trypsin, read by inhibition of tritiated thymidine incorporation in CCL64 cells", "assay_type": "cell-based", "conditions": "37° C. 10 min", "protocol": "In order to measure the capacity of certain CMDBSs to interact with members of the beta TGF family and, by means of this interaction, to protect the beta TGFS, a grading test was devised.\nThe beta 1 TFG is prepared from human blood platelets according to a protocol described in numerous publications (for example Growth factors and their receptors, 1992, vol 1 pp 419-472, written by A. Roberts and M. Sporn, edited by A. Roberts and M. Sporn, and published by Springer Verlag Berlin) and is commonly used by persons of ordinary skill in the art. The beta TGF biological activity test used in this example is that of the inhibition of CCL64 cells (from the American Tissue Culture Collection). This inhibition is measured by the ability of the beta TGF to inhibit the incorporation of tritiated thymidine in a dose dependent manner in these CCL64 cells stimulated by the FGF or by fetal calf serum according to the protocol described by Van Zolen in Progress in Growth Factor Research, 1990, 2, pp 131 to 152. Two doses of beta TGF are used, one corresponding to the 50% inhibition capacity of the incorporation of tritiated thymidine (defined as the inhibiting activity unit) and the other corresponding to the 100% inhibition capacity.\nThe final volume of the incubated solution is adjusted to 1 ml and incubation is carried out at 37° C. for a varying length of time (10 minutes in the example described (Table 1)).\n20 μl samples […] are taken from each of the incubation reactions and added to CCL64 cells cultivated in 24-well plates, each well containing one milliliter of culture medium according to the aforementioned protocol described by E. Zohlen. In these conditions, the final concentration of beta TGF per well is 1 ng/ml.\nThe incubation mixture contained 50 ng of beta TGF (in 0.1% bovine serum albumin) and trypsin (500 μg). Mesoglycan or sulodexide or dextran sulfate or dextran or sucrase are used at the dose of 5000 μg.\nThe beta TGF biological activity is measured as described above after a dilution of 50 times and by using CCL64 cells."}, "complement system": {"tested_on": "complement system", "conditions": "according to Mauzac et al."}, "[2]": {"tested_on": "anastomosis of the rectocolic junction", "protocol": "Male Wistar rats (Wi/Wi, Ico, Iffa Credo France), weighing 250 to 300 g are anesthetized with sodic pentobarbital. A subumbilical midline laparotomy is performed over 1.5 cm. The rectocolic junction is individualized and then sectioned with bistoury. […] The anastomosis is carried out according to a termino-terminal mode in a plane by five separate stitches of polyglactine 910 thread, diameter 6/0. The knots are made of 6 loops. Parietal closure is performed in two planes. The rats are divided into two groups of 7 rats. The experiments are conducted in double blind. Samples are taken on the 2nd, 4th and 7th days after the operation. The quality of the healing is studied by measuring the rupture pressure of the anastomosis, in millimeters of mercury. The colon is sectioned 2 cm on either side of the anastomosis, one end being connected to a self-pushing syringe which injects water at a low, constant rate, and the other end being linked to a manometer. Pressure is recorded continuously on a reel of paper. The rupture pressure is determined by analyzing the tracing."}, "125I-FGF1": {"tested_on": "125I-FGF1", "test": "protection of 125I-FGF1 against proteolytic degradation by trypsin (gel, autoradiography)", "assay_type": "biochemical", "conditions": "FIG. 5A, 37° C.", "protocol": "Proteolytic digestion was carried out at 37° C. and the samples were separated by 18% polyacrylamide gel electrophoresis. The gels are dried and autoradiographed. The first track contains the 125I-FGF1 on its own."}, "125I-FGF2": {"tested_on": "125I-FGF2", "test": "protection of 125I-FGF2 against proteolytic degradation by trypsin (gel, autoradiography)", "assay_type": "biochemical", "conditions": "FIG. 5B, 37° C.", "text": "The arrangement of the tracks is identical to that presented for the ^125 I-FGF1 in FIG. 5A."}, "FGF [3]": {"tested_on": "FGF", "test": "semi-quantitative evaluation of FGF protection against trypsin (densitometry of radio-labelled FGF)", "assay_type": "biochemical", "conditions": "FGF + trypsin + polymer; radio-labelled FGF found vs quantity deposited", "protocol": "As described above, a constant quantity of radioactive FGF is incubated under various conditions. After autoradiography of the reaction products, the non degraded quantity of radioactive FGF is quantified by densitometry. The values correspond to the percentage of radio-labelled FGF found compared to the quantity deposited at the start of reaction (Table 5)."}, "FGF 2": {"tested_on": "FGF 2", "test": "potentialization of FGF2 biological activity, tritiated thymidine incorporation in CCL39 cells", "assay_type": "cell-based", "text": "(§1) The cells used in this example are CCL39 cells from the American Tissue Culture Collection. The conditions concerning culture and the measurement test of FGF biological activity are the same as those described in the publication by Tardieu and coll. in the Journal of Cellular Physiology, 1992. The FGF growth factors used are the FGF 1 and FGF 2 recombinant forms.\n(§2) In these experiments, the FGF 1 or 2 is used at a dose corresponding to the effective dose (indicated ED50) in order to induce a stimulation of the biological activity of 50% of the dose inducing the maximum stimulation. The biological activity is measured by the ability to induce an increase of the incorporation of tritiated thymidine in the cells according to protocols extensively described in numerous publications such as the previously mentioned publication by Tardieu et coll. and also in French Patent 2 644 066.\n(§3) In addition to this ability to potentialize the biological activity of the FGFs, the HBGFPPs protect the FGFs against thermal degradations and the inactivation induced by the proteolytic action of trypsin (FIGS. 4 and 5). Similarly, these HBGFPPs protect FGF1 and 2 against an inactivation induced by the proteolytic activity of trypsin (FIGS. 5A and 5B)."}, "FGF2": {"tested_on": "FGF2", "test": "protection of FGF2 against thermal degradation", "assay_type": "cell-based", "conditions": "FIG. 4; 20° C. and 37° C., 1, 7, 15, 30 days", "protocol": "(§4) (a) and 37° C. (b) for 1, 7, 15, 30 days. The measurement of the biological activity presented in abscissa corresponds to the stimulation unit values (ED50) of the incorporation of tritiated thymidine in CCL39 cells."}, "FGF 1": {"tested_on": "FGF 1", "test": "potentialization of FGF1 biological activity, tritiated thymidine incorporation in CCL39 cells", "assay_type": "cell-based", "text": "as §1, §2, §3"}, "FGF1": {"tested_on": "FGF1", "test": "protection of FGF1 against thermal degradation", "assay_type": "cell-based", "conditions": "FIG. 3; 20° C. and 37° C., 1, 7, 15, 30 days", "protocol": "as §4"}, "FGF [4]": {"tested_on": "FGF", "conditions": "Tardieu et al. 1992; cited from earlier work"}, "[5]": {"conditions": "beta TGF 50 ng + polymer 5000 μg + trypsin 500 μg"}, "[6]": {"conditions": "beta TGF 50 ng + polymer 5000 μg, no trypsin"}, "[7]": {"conditions": "10 μg/ml of sulodexide or 20 μg/ml of heparin, CCL39 cells"}}, "note": "Where two headings read alike, the source gives them in different places.", "data": [{"molecule": "carboxymethyl dextran benzylamide sulfonate [CMDBS]", "values": [{"measurement": "Alteration score", "setting": "[1]", "value": "0.70 ± 0.37"}, {"measurement": "reduction of the seriousness of the colic lesions", "setting": "[1]; p≤0.05", "value": "about 75%"}, {"measurement": "inhibiting power on the activity of trypsin", "setting": "trypsin", "value": "no inhibiting power"}, {"measurement": "trypsin activity on S87", "setting": "trypsin; trypsin 10 ug/ml + S87 + 5 μg/ml CMDBS", "value": 100}, {"measurement": "trypsin activity on S87", "setting": "trypsin; trypsin + S87 + 50 μg/ml CMDBS", "value": 100}, {"measurement": "trypsin activity on S87", "setting": "trypsin; trypsin + S87 + 500 μg/ml CMDBS", "value": 100}, {"measurement": "% inhibiting activity of the incorporation of tritiated thymidine in CCL64 cells", "setting": "beta TGF; [5]", "value": 75, "unit": "%"}, {"measurement": "% inhibiting activity of the incorporation of tritiated thymidine in CCL64 cells", "setting": "beta TGF; [6]", "value": 100, "unit": "%"}, {"measurement": "anticomplement activity, CH50", "setting": "complement system", "value": 1.1, "unit": "µg"}, {"measurement": "Rupture pressure, mean", "setting": "[2]; DAY 2", "value": "67.28 mm of Hg"}, {"measurement": "Rupture pressure, mean", "setting": "[2]; DAY 4", "value": "144.8 mm of Hg"}, {"measurement": "increased resistance vs untreated", "setting": "[2]; Day 4", "value": "about 10%"}, {"measurement": "difference between treated and untreated resistances", "setting": "[2]; Day 7", "value": "no longer any difference"}]}, {"molecule": "heparin", "values": [{"measurement": "protective effect against proteolytic degradation of 125I-FGF1", "setting": "125I-FGF1", "value": "protective effect"}, {"measurement": "protective effect against proteolytic degradation of 125I-FGF2", "setting": "125I-FGF2", "value": "protective effect"}, {"measurement": "% inhibiting activity of the incorporation of tritiated thymidine in CCL64 cells", "setting": "beta TGF; [5]", "value": 10, "unit": "%"}, {"measurement": "% inhibiting activity of the incorporation of tritiated thymidine in CCL64 cells", "setting": "beta TGF; [6]", "value": 100, "unit": "%"}, {"measurement": "PROTECTION (in %) of the FGF", "setting": "FGF [3]", "value": 100, "unit": "%"}, {"measurement": "ED50 of FGF 2 in the presence of polymer", "setting": "FGF 2; [7]", "value": 0.2, "unit": "ng/mL"}, {"measurement": "potentialization of the biological activity of FGF2", "setting": "FGF 2; FIG. 2B, 20 μg heparin, 10 μg mesoglycan or 10 μg sulodexide", "value": "potentialization"}, {"measurement": "protective effect against thermal degradation of FGF2", "setting": "FGF2", "value": "protective effect"}, {"measurement": "ED50 of FGF 1 in the presence of polymer", "setting": "FGF 1; [7]", "value": 0.4, "unit": "ng/mL"}, {"measurement": "potentialization of the biological activity of FGF1", "setting": "FGF 1; FIG. 2A, 20 μg heparin, 10 μg mesoglycan or 10 μg sulodexide", "value": "potentialization"}, {"measurement": "protective effect against thermal degradation of FGF1", "setting": "FGF1", "value": "protective effect"}, {"measurement": "protection of FGFs against proteolysis induced by trypsin", "setting": "FGF [4]", "value": "provides protection against proteolysis induced by trypsin"}]}, {"molecule": "sucralfate [reference compound]", "values": [{"measurement": "Alteration score", "setting": "[1]", "value": "2.25 ± 0.48"}, {"measurement": "effect on the healing of the ulcers", "setting": "[1]; rat, in vivo", "value": "no significant effect"}]}, {"molecule": "STBI: trypsin inhibitor originating from soya, from Sigma (protein, UniProt P01070 25-205, looked up) Trypsin inhibitor A: DFVLDNEGNPLENGGTYYILSDITAFGGIRAAPTGNERCPLTVVQSRNELDKGIGTIISSPYRIRFIAEGHPLSLKFDSFAVIMLCVGIPTEWSVVEDLPEGPAVKIGENKDAMDGWFRLERVSDDEFNNYKLVFCPQQAEDDKCGDIGISIDHDDGTRRLVVSKNKPLVVQFQKLDKESL", "values": [{"measurement": "trypsin activity on S87", "setting": "trypsin; trypsin + S87 + trypsin inhibitor", "value": 0}]}]}
